# Results published in patent US6716812B1, “Modulation of sperm function” (priority 1998, dated 2004).
# Positions of bridges follow the written chain, without caps; N, C: chain ends. Non-standard residues stand in square brackets, D forms with d. Residues, ends and D or L forms follow the SMILES beside them. No end group written: not given here. pGlu = O=C1CC[C@@H](C(=O)O)N1
# What was measured:
# capacitated mouse sperm = test: Spontaneous acrosome loss in capacitated suspensions (CTC); format: cell-based; details: for incidence of spontaneously acrosome-reacted sperm vs untreated control: 40 min after 90 min capacitation
# Method: (§1) Chlortetracycline (CTC) fluorescence analysis was carried out as described by Green et al. (1994). Assessments were made on an Olympus BX40 microscope equipped with phase contrast and BX-FLA epifluorescence optics using the wide blue-violet excitation cube (U-MWBV). The excitation beam passed through a 400-440 nm band pass filter and CTC fluorescence was observed through a DM 455 dichroic mirror. In each sample, at least 100 sperm were classified as expressing one of three patterns: F, with fluorescence over the entire head, a pattern characteristic of uncapacitated (non-fertilizing), acrosome-intact sperm; B, with a fluorescence-free band in the postacrosomal region, a pattern characteristic of capacitated (potentially fertilizing), acrosome-intact sperm; AR, with dull or absent fluorescence over the whole head, a pattern characteristic of acrosome-reacted (non-fertilizing) sperm.
# Sperm suspensions were prepared as described earlier for CTC analysis and incubated for 90 min to allow capacitation. Suspensions were then filtered to remove non-motile cells and a sample was stained with CTC (Con-90). The remaining suspension was aliquotted out to different treatment groups and treated for 40 min with nothing (Con-130), 100 nM FPP (positive control), 100 nM FPP+100 ng/ml pertussis toxin (F+PT, negative control), 5 ng/ml salmon calcitonin (CT) and 5 ng/ml salmon calcitonin+100 ng/ml pertussis toxin (CT+PT); (n=3).
# human sperm [1] = details: Green et al., 1996; cited from earlier work
# [2] = test system: uncapacitated mouse sperm; test: Chlortetracycline (CTC) fluorescence analysis of capacitation in uncapacitated sperm; format: cell-based; details: 40 min incubation
# Method: The contents of cauda epididymides (3-4 cauda per ml of medium) from mature TO male mice (Harlan Olac, Bicester, U.K.) were released into 2 ml modified Tyrode's medium (Fraser, 1993) in 30 mm sterile culture dishes and allowed to disperse for 5 min. For studies on uncapacitated sperm, suspensions were then filtered through short columns of Sephadex G-25 (medium grade; Pharmacia, Uppsala, Sweden) to remove non-motile cells. Filtered suspensions were aliquotted out to different treatment groups, treated with nothing (control), calcitonin or FPP (as a positive control) and then incubated for 40 min. Salmon calcitonin was used at a final concentration of 5 ng/ml, human calcitonin was used at 200 ng/ml and 20 ng/ml and FPP was used at 100 nM. These short-term incubations were carried out in 0.5 ml plastic microcentrifuge tubes at 37° C. in an atmosphere of 5% CO2, 5% O2, 90% N2. […] Three replicate experiments using uncapacitated sperm were carried out using salmon calcitonin and the higher concentration of human calcitonin (n=3); for the lower concentration of the human hormone, n=2.
# as §1
# mouse sperm = test: Subjective motility evaluation; format: cell-based; details: judged subjectively; concentrations as in the CTC experiments
# Source text: In all experiments, a drop of each suspension was examined briefly for subjective motility evaluation.
# human sperm [3] = details: some (higher) concentrations; Gnessi et al, 1984; cited from earlier work
# [4] = test system: uncapacitated mouse sperm suspensions; test: In vitro fertilization analysis; format: cell-based; details: 40 min preincubation, 65 min coincubation
# Method: The contents of the cauda epididymides from 2 mature TO male mice were released into 2 ml modified Tyrode's medium in 30 mm sterile culture dishes and allowed to disperse for 5 min. Suspensions were then divided into 3 treatment groups, each in a 30 mm sterile dishes, and treated with nothing (Control) or with calcitonin. As in the CTC experiments, salmon calcitonin was used at a final concentration of 5 ng/ml and human calcitonin at 200 ng/ml. Each suspension was overlaid with autoclaved liquid paraffin and incubated for 40 min at 37° C. in an atmosphere of 5% O2, 5% CO2, 90% N2.
# Mature female TO mice were induced to superovulate by intraperitoneal injections of 7.5 IU equine chorionic gonadotrophin and approximately 50 hr later with 5 IU human chorionic gonadotrophin (hCG). Approximately 15 hr post-hCG, oviducts were removed and cumulus masses containing the oocytes were released into medium covered with liquid paraffin. Preincubated sperm suspensions were diluted ^˜10 fold into medium of the same composition used for initial incubation (i.e., without or with calcitonin); 400 μl of diluted suspension were transferred to culture dishes, covered with liquid paraffin and oocytes were added. […]
# Oocytes were stained with 0.75% aceto orcein, mounted and assessed (Fraser, 1993). […]
# [5] = pertussis toxin at 100 ng/ml, 40 min
compound,measurement,setting,value
pertussis toxin,effect on the response (inhibition of spontaneous acrosome loss) to 5 ng/ml salmon calcitonin,capacitated mouse sperm; [5],abolished the responses
same,effect on the response (inhibition of spontaneous acrosome loss) to 100 nM FPP,capacitated mouse sperm; [5],abolished the responses
"NC(=O)[C@@H]1CCCN1C(=O)[C@H](CCC(=O)O)NC(=O)[C@@H]1CCC(=O)N1 [FPP, pyroglutamylglutamylprolineamide] ([pGlu]-Glu-Pro-NH2)",human sperm fertilizing ability,human sperm [1],stimulate human sperm fertilizing ability
same,"proportion of F pattern cells (uncapacitated, non-fertilizing) vs untreated",[2]; 100 nM,significantly lower proportion
same,"proportion of B pattern cells (capacitated, potentially fertilizing) vs untreated","[2]; 100 nM, P<0.01, positive control",significantly higher proportion
same,incidence of spontaneously acrosome-reacted sperm vs untreated control,"capacitated mouse sperm; 100 nM, P<0.01, n=3, positive control",significantly lower incidence
same,sperm motility vs untreated controls,mouse sperm,more active motility
salmon calcitonin,"proportion of F pattern cells (uncapacitated, non-fertilizing) vs untreated",[2]; 5 ng/ml,significantly lower proportion
same,"proportion of B pattern cells (capacitated, potentially fertilizing) vs untreated","[2]; 5 ng/ml, P<0.01, n=3",significantly higher proportion
same,incidence of spontaneously acrosome-reacted sperm vs untreated control,"capacitated mouse sperm; 5 ng/ml, P<0.01, n=3",significantly lower incidence
same,effect on human sperm motility,human sperm [3],negative effect
same,fertilized oocytes obtained vs untreated control sperm,"[4]; 5 ng/ml, P<0.025, n=4",significantly more fertilized oocytes
"human calcitonin: 32-amino acid hypocalcemic hormone of human origin (CGNLSTCMLGTYTQDFNKFHTFPQTAIGVGAP-NH2; disulfide 1-7; ends not checked; UniProt P01258 85-116, looked up)","proportion of F pattern cells (uncapacitated, non-fertilizing) vs untreated",[2]; 20 ng/ml,significantly lower proportion
same,"proportion of B pattern cells (capacitated, potentially fertilizing) vs untreated","[2]; 20 ng/ml, P<0.025, n=2",significantly higher proportion
same,"proportion of F pattern cells (uncapacitated, non-fertilizing) vs untreated",[2]; 200 ng/ml,significantly lower proportion
same,"proportion of B pattern cells (capacitated, potentially fertilizing) vs untreated","[2]; 200 ng/ml, P<0.01, n=3",significantly higher proportion
same,effect on human sperm motility,human sperm [3],not
same,fertilized oocytes obtained vs untreated control sperm,"[4]; 200 ng/ml, P<0.05, n=4",significantly more fertilized oocytes
calcitonin,sperm motility vs untreated controls,mouse sperm,more active motility
